# Where two headings read alike, the source gives them in different places.
# Experiments:
# [1] = molecular target: human recombinant 5-HT2C receptor (Homo sapiens (Human), UniProt P28335); experiment: biochemical; type: binding
# Method: Test Example 2: 5-HT2C Receptor Binding Inhibition Test
# (Each experimental condition)
# Cell membrane: 0.5 μg of Jump-In HEK cell membrane (expressing human recombinant 5-HT2C receptor) per well
# Assay buffer: Tris-HCl 50 mmol/L (pH 7.4) containing NaCl 120 mmol/L, MgCl2·6H2O 1 mmol/L, KCl 5 mmol/L, 0.1% BSA and CaCl2) 2 mmol/L
# Radioactive ligand: [^3H]-Mesulergine with a final concentration of 1 nmol/L
# (§1) Non-specific ligand: Serotonin HCl with a final concentration of 500 μmol/L
# (§2) The Kd value was calculated when the lot of cell membrane was changed. […] The radioactive ligand solution was serially diluted from 16 nM at a 2-fold ratio and the count was confirmed with a liquid scintillator. […] After that, filtration was performed with Cell harvester (PerkinElmer). The radioactive ligand solution was dispensed into an empty well of the GF/B UniFilter plate at 10 μL/well. […] The GF/B UniFilter plate was allowed to stand overnight at room temperature. […] The Saturation curve was drawn from the measured value, and the Kd value was calculated from the slope of the Scatchard Plot.
# (§3) (Binding Test of the Compound According to the Present Invention)
# (§4) After that, filtration was performed with Cell harvester (PerkinElmer).
# [2] = molecular target: human recombinant 5-HT2A receptor (Homo sapiens (Human), UniProt P28223); experiment: biochemical; type: binding
# Method: Test Example 1: 5-HT2A Receptor Binding Inhibition Test
# (Each Experimental Condition)
# Cell membrane: 15 μg of Jump-In HEK cell membrane (expressing human recombinant 5-HT2A receptor) per well
# Assay buffer: Tris-HCl 50 mmol/L (pH 7.4) containing NaCl 120 mmol/L, MgCl2·6H2O 1 mmol/L, KCl 5 mmol/L, 0.1% BSA and CaCl2 2 mmol/L
# Radioactive ligand: [^3H]-Ketanserin with a final concentration of 3 nmol/L
# as §1, §2, §3, §4
# [3] = human serotonin 5-HT2C receptor binding, [3H]-Mesulergine, read-out: h-5-HT2C Ki
# [4] = [3H]-Ketanserin 3 nmol/L, Jump-In HEK cell membrane, class symbols, read-out: h-5-HT2A Ki
# [5] = [3H]-Mesulergine 1 nmol/L, Jump-In HEK cell membrane, read-out: human serotonin 5-HT2C receptor binding activity, Ki
# [6] = [3H]-Ketanserin 3 nmol/L, Jump-In HEK cell membrane, read-out: human serotonin 5-HT2A receptor binding activity, Ki
# Chain of human recombinant 5-HT2C receptor (P28335 whole entry, looked up): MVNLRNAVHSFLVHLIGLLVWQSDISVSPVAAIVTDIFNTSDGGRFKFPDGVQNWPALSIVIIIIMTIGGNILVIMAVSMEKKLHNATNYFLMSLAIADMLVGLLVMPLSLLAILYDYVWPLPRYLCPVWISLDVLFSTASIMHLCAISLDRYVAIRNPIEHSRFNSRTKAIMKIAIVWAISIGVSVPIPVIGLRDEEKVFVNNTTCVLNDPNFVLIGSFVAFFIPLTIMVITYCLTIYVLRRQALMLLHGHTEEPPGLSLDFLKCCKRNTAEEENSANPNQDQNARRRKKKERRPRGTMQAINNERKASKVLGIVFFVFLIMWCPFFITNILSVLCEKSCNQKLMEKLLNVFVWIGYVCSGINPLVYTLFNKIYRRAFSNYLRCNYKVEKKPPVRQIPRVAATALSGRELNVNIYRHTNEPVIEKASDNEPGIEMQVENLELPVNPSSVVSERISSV
Structure (SMILES),"Ki [1, 3] [nM]","Ki [2, 4] [nM]","Ki [1, 5] [nM]","Ki [2, 6] [nM]",other results
CC(C)COc1ccc(CNC(=O)N(Cc2ncccc2F)[C@@H]2CCN(C)C[C@@H]2F)cc1 (racemic) [Compound I-069],> 100,10 to 100,–,–,–
CC(C)COc1ccc(CNC(=O)N(Cc2ncccc2F)[C@@H]2CCNC[C@@H]2F)cc1 (racemic) [Compound I-073],> 100,10 to 100,–,–,–
CC(C)COc1ccc(CNC(=O)N(Cc2ccc(F)cn2)[C@H]2CCN(C)C[C@@H]2O)cc1 (racemic) [Compound I-088],–,–,134,25.7,–
CC(C)COc1ccc(CNC(=O)N(Cc2ccn(C)n2)C2CCNCC23CC3)cc1 (racemic) [Compound I-090],< 10,< 10,–,–,–
CC(C)COc1ccc(CNC(=O)N(Cc2ccc(F)cn2)C2CCNCC2(F)F)cc1 (racemic) [Compound I-091],< 10,< 10,–,–,–
CC(C)COc1ccc(CNC(=O)N(Cc2ccn(C)c2)[C@@H]2CCNC[C@@H]2F)cc1 (racemic) [Compound I-093],< 10,< 10,–,–,–
Cc1cc(CN(C(=O)NCc2ccc(OCC(C)C)cc2)C2CCN(C)CC23CC3)nn1C (racemic) [Compound I-094],< 10,< 10,–,–,–
COc1ccc(CNC(=O)N(Cc2ccc(F)cn2)C2CCN(C)CC23CC3)cc1 (racemic) [Compound I-099],–,–,–,–,Ki [1]: < 10 nM; Ki [2]: < 10 nM
Cc1ccc(CNC(=O)N(Cc2ccc(F)cn2)C2CCN(C)CC23CC3)cc1 (racemic) [Compound I-100],10 to 100,< 10,–,–,–
Cc1ccc(CNC(=O)N(Cc2ccc(F)cn2)C2CCNCC23CC3)cc1 (racemic) [Compound I-101],10 to 100,< 10,–,–,–
COc1ccc(CNC(=O)N(Cc2cc(C)n(C)n2)C2CCN(C)CC23CC3)cc1 (racemic) [Compound I-104],< 10,< 10,–,–,–
Cc1ccc(CNC(=O)N(Cc2cc(C)n(C)n2)C2CCN(C)CC23CC3)cc1 (racemic) [Compound I-105],< 10,< 10,–,–,–
CCCOc1ccc(CNC(=O)N(Cc2ccn(C)n2)C2CCNCC23CC3)cc1 (racemic) [Compound I-107],10 to 100,< 10,–,–,–
CC(C)COc1ccc(CNC(=O)N(Cc2ccn(C)c2)[C@@H]2CCN(C)C[C@@H]2F)cc1 (racemic) [Compound I-108],< 10,< 10,–,–,–
CCCOc1ccc(CNC(=O)N(Cc2cc(C)n(C)n2)C2CCN(C)CC23CC3)cc1 (racemic) [Compound I-109],< 10,< 10,–,–,–
CN1CCC(N(Cc2ccn(C)n2)C(=O)NCc2ccc(OCC3CC3)cc2)C2(CC2)C1 (racemic) [Compound I-110],< 10,< 10,–,–,–
CN1CCC(N(Cc2ccn(C)n2)C(=O)NCc2ccc(OC(F)F)cc2)C2(CC2)C1 (racemic) [Compound I-111],< 10,< 10,–,–,–
CC(C)COc1ccc(CNC(=O)N(Cc2ccc(F)cn2)C2CCN(C)C3(CC3)C2)cc1 (racemic) [Compound I-136],–,–,148,8.02,–
CC(C)COc1ccc(CNC(=O)N(Cc2ccc(Cl)cn2)C2CCN(C)CC2)cc1 [Compound I-009],–,–,7.92,0.291,–
CC(C)COc1ccc(CNC(=O)N(Cc2ccn(C)n2)C2CCN(C)CC2)cc1 [Compound I-021],–,–,50.7,0.858,–
CC(C)COc1ccc(CNC(=O)N(Cc2cc3ccccc3cn2)C2CCN(C)CC2)cc1 [Compound I-037],–,–,28.2,0.654,–
CC(C)COc1ccc(COC(=O)N(Cc2ccc(F)cn2)C2CCN(C)CC2)cc1 [Compound I-042],–,–,2.31,1.15,–
COc1ccc(CNC(=O)N(Cc2ccc(F)cn2)C2CCN(C)CC2)cc1 [Compound I-043],–,–,55.7,2.52,–
CC(C)COc1ccc(CC(=O)N(Cc2ccc(F)cn2)C2CCN(C)CC2)cc1 [Compound I-068],–,–,49.9,6.52,–

Structure (SMILES),"Ki [1, 3] [nM]","Ki [2, 4] [nM]","Ki [1, 5] [nM]","Ki [2, 6] [nM]",other results
CC(C)COc1ccc(CNC(=O)N(Cc2ccc(F)c3cccnc23)C2CCN(C)CC2)cc1 [Compound I-070],10 to 100,< 10,–,–,–
CC(C)COc1ccc(CNC(=O)N(Cc2ccc(F)c3ccoc23)C2CCN(C)CC2)cc1 [Compound I-071],–,–,60.7,13.3,–
CC(C)COc1ccc(CNC(=O)N(Cc2cc3c(cn2)OCCO3)C2CCN(C)CC2)cc1 [Compound I-072],–,–,617,219,–
CC(C)COc1ccc(CNC(=O)N(Cc2cn(C)c3cccnc23)C2CCN(C)CC2)cc1 [Compound I-074],10 to 100,10 to 100,–,–,–
CN1CCC(N(Cc2ccc(F)cn2)C(=O)NCc2cccc(O)c2)CC1 [Compound I-075],–,–,1310,130,–
CN1CCC(N(Cc2ccc(F)cn2)C(=O)NCc2ccccc2O)CC1 [Compound I-076],–,–,263,62,–
CC(C)COc1ccc(CNC(=O)N(Cc2ncc(O)cc2F)C2CCN(C)CC2)cc1 [Compound I-077],> 100,10 to 100,–,–,–
Cc1cnc(CN(C(=O)NCc2ccc(OCC(C)C)cc2)C2CCN(C)CC2)cn1 [Compound I-078],> 100,10 to 100,–,–,–
CC(C)COc1ccc(CNC(=O)N(Cc2cn(C)c3ccccc23)C2CCN(C)CC2)cc1 [Compound I-079],> 100,> 100,–,–,–
CC(C)COc1ccc(CNC(=O)N(Cc2ncc(F)cc2O)C2CCN(C)CC2)cc1 [Compound I-080],10 to 100,10 to 100,–,–,–
CC(C)COc1ccc(CNC(=O)N(Cc2ccc(F)c3cc[nH]c23)C2CCN(C)CC2)cc1 [Compound I-081],> 100,> 100,–,–,–
CN1CCC(N(Cc2ccc(F)cn2)C(=O)NCc2ccc(Br)cc2)CC1 [Compound I-082],–,–,28.8,3.74,–
C=Cc1ccc(CNC(=O)N(Cc2ccc(F)cn2)C2CCN(C)CC2)cc1 [Compound I-083],10 to 100,< 10,–,–,–
CN1CCC(N(Cc2ccc(F)cn2)C(=O)NCc2ccc(Cl)cc2)CC1 [Compound I-084],–,–,65.2,5.61,–
CC(C)COc1ccc(CNC(=O)N(Cc2ccc(F)cn2)[C@@H]2CCN(C)C[C@@H]2F)cc1 [Compound I-085],–,–,96.2,23.8,–
CC(C)COc1ccc(CNC(=O)N(Cc2ccc(F)cn2)C2CCN(C)C(CO)C2)cc1 (stereo not shown) [Compound I-089],10 to 100,< 10,–,–,–
CN1CCC(N(Cc2ccc(F)cn2)C(=O)NCc2ccc(OCC(C)(F)F)cc2)CC1 [Compound I-092],< 10,< 10,–,–,–
CN1CCC(N(Cc2ccc(F)cn2)C(=O)NCc2ccc(OCC(F)(F)F)cc2)CC1 [Compound I-095],< 10,< 10,–,–,–
Cc1cc(CN(C(=O)NCc2ccc(OCC(C)C)cc2)C2CCN(C)CC2)nn1C [Compound I-096],10 to 100,< 10,–,–,–
C[C@H](F)COc1ccc(CNC(=O)N(Cc2ccc(F)cn2)C2CCN(C)CC2)cc1 [Compound I-097],10 to 100,< 10,–,–,–
C[C@@H](F)COc1ccc(CNC(=O)N(Cc2ccc(F)cn2)C2CCN(C)CC2)cc1 [Compound I-098],10 to 100,< 10,–,–,–
CC(C)COc1ccc(CNC(=O)N(Cc2ccc(F)cn2)[C@H]2CCN(C)C[C@H]2F)cc1 [Compound I-103],< 10,< 10,–,–,–
COc1ccc(COC(=O)N(Cc2ccn(C)c2)C2CCN(C)CC2)cc1 [Compound I-106],< 10,< 10,–,–,–
